Results on 28 compounds are retold here after the supplement of paper PMC12137928.

Structures can show the parent of a compound that is named as a salt.

This experiment concerns HCT116. The note with it: 72 h. In a few lines:
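For IC50 and maximal efficacy, four-parameter Hill fits were used. Input values were CellTiter-Glo luminescence from HCT116 cells seeded at 250 per well in 1536-well plates, normalized to vehicle (0%) and positive control (-100%). Pattern correction followed normalization.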

As for `NC(=O)C1(N2CCCCC2)CCN(CCCC(=O)c2ccc(F)cc2)CC1` [Pipamperone dihydrochloride], the IC50 cell viability is more than 45.8 µM (ICRF193 0 nM) and more than 45.8 µM (ICRF193 200 nM).

In the case of `CCN1C(=O)c2ccccc2C1Nc1ccc(OCCN2CCCCC2)cc1` (stereo unspecified) [Etomidoline], the IC50 cell viability runs as follows: (ICRF193 0 nM) more than 45.8 µM; (ICRF193 200 nM) more than 45.8 µM.

Consider `CCOC(=O)c1cncn1[C@H](C)c1ccccc1` [Etomidate], for which the IC50 cell viability reads like this: (ICRF193 0 nM) more than 45.8 µM; (ICRF193 200 nM) more than 45.8 µM.

In turn, `N[C@H](CC(=O)O)C(=O)O` [D-Aspartic acid] yielded an IC50 cell viability (ICRF193 0 nM) of more than 45.8 µM and an IC50 cell viability (ICRF193 200 nM) of more than 45.8 µM.

Take `N#CSCC(=O)O` [Thiocyanoacetic acid sodium salt]: the IC50 cell viability by setting is: (ICRF193 0 nM) more than 45.8 µM; (ICRF193 200 nM) more than 45.8 µM.

Turning to `CCC(=O)NCC[C@@H]1CCc2ccc3c(c21)CCO3` [Ramelteon], the IC50 cell viability (ICRF193 0 nM) is more than 45.8 µM and the IC50 cell viability (ICRF193 200 nM) is more than 45.8 µM.

With `C=CCOc1cc(Cl)ccc1C(=O)NCCN(CC)CC` [Alloclamide], the IC50 cell viability (ICRF193 0 nM) was more than 45.8 µM and the IC50 cell viability (ICRF193 200 nM) is more than 45.8 µM.

The compound `CN(CC1(C)CCCO1)S(=O)(=O)c1ccc(Cl)c(S(N)(=O)=O)c1` (stereo unspecified) [Mefruside] had an IC50 cell viability (ICRF193 0 nM) of more than 45.8 µM and an IC50 cell viability (ICRF193 200 nM) of more than 45.8 µM.

In the case of `N[C@@H](CC(=O)N1CCn2c(nnc2C(F)(F)F)C1)Cc1cc(F)c(F)cc1F` [Sitagliptin], the IC50 cell viability runs as follows: (ICRF193 0 nM) more than 45.8 µM; (ICRF193 200 nM) more than 45.8 µM.

As for `O=C(NCNC(=O)NC1C(=O)NC(=O)N1CO)NC1C(=O)NC(=O)N1CO` (stereo unspecified) [Imidazolidinyl urea], the IC50 cell viability was more than 45.8 µM (ICRF193 0 nM) and more than 45.8 µM (ICRF193 200 nM).

Consider `CCCCNCC(O)c1ccc(O)cc1` (stereo unspecified) [Bamethan], for which the IC50 cell viability runs as follows: (ICRF193 0 nM) more than 45.8 µM; (ICRF193 200 nM) more than 45.8 µM.

As to `CCN(C(=O)c1c(O)c2c(Cl)cccc2n(C)c1=O)c1ccccc1` [Laquinimod], the IC50 cell viability is, setting by setting: (ICRF193 0 nM) more than 45.8 µM; (ICRF193 200 nM) more than 45.8 µM.

Take `O=C(NCC1CCCCN1)c1cc(OCC(F)(F)F)ccc1OCC(F)(F)F` (stereo unspecified) [Flecainide]: the IC50 cell viability is, setting by setting: (ICRF193 0 nM) more than 45.8 µM; (ICRF193 200 nM) more than 45.8 µM.

For `Cc1cc(O)ccc1Cl` [4-Chloro-3-methylphenol], the IC50 cell viability reads like this: (ICRF193 0 nM) more than 45.8 µM; (ICRF193 200 nM) more than 45.8 µM.

Compound `COC(=O)C(c1ccccc1)C1CCCCN1` (stereo unspecified) [METHYLPHENIDATE HYDROCHLORIDE] had an IC50 cell viability (ICRF193 0 nM) of more than 45.8 µM and an IC50 cell viability (ICRF193 200 nM) of more than 45.8 µM.

As for `C[C@@H](O)[C@@H]1NC(=O)[C@H](CCCCN)NC(=O)[C@@H](Cc2c[nH]c3ccccc23)NC(=O)[C@H](Cc2ccccc2)NC(=O)[C@@H](NC(=O)[C@H](N)Cc2ccccc2)CSSC[C@@H](C(=O)N[C@H](CO)[C@@H](C)O)NC1=O` [Octreotide acetate], the IC50 cell viability by setting is: (ICRF193 0 nM) more than 45.8 µM; (ICRF193 200 nM) more than 45.8 µM.

Compound `CO[C@@]12[C@H](COC(N)=O)C3=C(C(=O)C(C)=C(N)C3=O)N1C[C@@H]1N[C@@H]12` [Mitomycin C] displayed an IC50 cell viability (ICRF193 0 nM) of more than 45.8 µM and an IC50 cell viability (ICRF193 200 nM) of more than 45.8 µM.

Turning to `COc1ccc(CC(C)NCC(O)c2ccc(O)c(NC=O)c2)cc1` (stereo unspecified) [Formoterol hemifumarate], the IC50 cell viability (ICRF193 0 nM) is more than 45.8 µM and the IC50 cell viability (ICRF193 200 nM) is more than 45.8 µM.

For `Oc1ncnc2[nH]ncc12` [Allopurinol], the IC50 cell viability runs as follows: (ICRF193 0 nM) more than 45.8 µM; (ICRF193 200 nM) more than 45.8 µM.

As to `NS(=O)(=O)Cc1noc2ccccc12` [Zonisamide], the IC50 cell viability reads like this: (ICRF193 0 nM) more than 45.8 µM; (ICRF193 200 nM) more than 45.8 µM.

Take `Oc1ccccc1` [Phenol]: the IC50 cell viability was more than 45.8 µM (ICRF193 0 nM) and more than 45.8 µM (ICRF193 200 nM).

Take `O=C(O)c1ccccc1-c1c2ccc(=O)cc-2oc2cc(O)ccc12` [Fluorescein sodium]: the IC50 cell viability is more than 45.8 µM (ICRF193 0 nM) and more than 45.8 µM (ICRF193 200 nM).

`CNC(=O)OCc1cccc(COC(=O)NC)n1` [Pyricarbate] had an IC50 cell viability (ICRF193 0 nM) of more than 45.8 µM and an IC50 cell viability (ICRF193 200 nM) of more than 45.8 µM.

Consider `N#Cc1ccc(Oc2ccc3c(c2)COB3O)cc1` [AN-2728], for which the IC50 cell viability is, setting by setting: (ICRF193 0 nM) more than 45.8 µM; (ICRF193 200 nM) more than 45.8 µM.

For `CCCCCCCCCCCCCCCCCCCCCCO` [Docosanol], the IC50 cell viability reads like this: (ICRF193 0 nM) more than 45.8 µM; (ICRF193 200 nM) more than 45.8 µM.

For `Cc1c(OCC(F)(F)F)ccnc1C[S@@+]([O-])c1nc2ccccc2[nH]1` [(R)-Lansoprazole], the IC50 cell viability (ICRF193 0 nM) is more than 45.8 µM and the IC50 cell viability (ICRF193 200 nM) was more than 45.8 µM.

In the case of `Cc1cn([C@@H]2C[C@@H](O)[C@H](CO)O2)c(=O)[nH]c1=O` [Telbivudine], the IC50 cell viability was more than 45.8 µM (ICRF193 0 nM) and more than 45.8 µM (ICRF193 200 nM).

Take `O=C(Nc1ccc(O)cc1)c1ccccc1O` [2-Hydroxy-N-(4-hydroxyphenyl)-benzamide]: the IC50 cell viability (ICRF193 0 nM) was more than 45.8 µM and the IC50 cell viability (ICRF193 200 nM) was more than 45.8 µM.
